Patent publication US11434241B2, “Pyrimidine derivatives for prevention and treatment of bacterial infections” (UNIVERSITE DE LIEGE, priority 2018, dated 2022)
Converted amounts (≈) assume the structure as drawn. Where two headings read alike, the source gives them in different places.

What was measured:
[1] = system: methicillin-resistant S. aureus (MRSA) ATCC BAA-1556; assay: MIC determination on methicillin-resistant S. aureus; type: cell-based, Staphylococcus aureus; conditions: for MIC: Staphylococcus aureus; for antibacterial activity against MRSA (in words): MHB medium
Method: Further experiments are conducted using different strains of S. aureus, as clinically relevant Gram-positive bacterial strains: S. aureus ATCC 25904, methicillin-resistant S. aureus (MRSA) ATCC BAA-1556, Glycopeptide intermediate-resistant (GISA) S. aureus Mu-50 (ATCC 700695) in order to determine the Minimal Inhibitory Concentration (MIC) which is the minimal concentration required to prevent bacterial growth. The bioluminescent strain S. aureus Xen29 (ATCC 12600) was also used. This strain is derived from the parental strain S. aureus ATCC 12600, a pleural fluid isolate, which is also designated as NCTC8532.
A single colony selected from the different strains of S. aureus is resuspended and cultured in brain heart infusion (BHI) broth overnight (O/N) in aerobic conditions (37° C. with 220 rpm shaking), next day a 1:100 inoculum in Mueller-Hinton broth (MHB) is incubated in aerobic conditions for 3 hr (=OD0.08-0.1) and an inoculum of 1:300 dilution, corresponding to 3×10^5 CFU/ml, is incubated in presence or absence of different concentrations of the tested molecules in 1% DMSO. After O/N growth the OD of each culture was measured at 600 nm (OD600) in a spectrophotometer (Victor 3-Perkin Elmer). The MIC represents the concentration at which there is no visible growth of bacteria, i.e. ΔOD at 600 nm equal to zero (blank is the medium alone). […] The MIC of molecule 2329 against Glycopeptide intermediate-resistant (GISA) S. aureus Mu-50 (ATCC 700695) is in between 25 and 30 μM, while it is above 50 μM for molecules 2348, 2412, and 2452.
Further experiments are conducted using different strains of S. aureus, as clinically relevant Gram-positive bacterial strains: methicillin-resistant S. aureus (MRSA) ATCC BAA-1556 and S. aureus Xen29 (Perkin Elmer ATCC 12600).
To determine the MIC of the above mentioned molecules in MRSA or in Xen29, a single colony of MRSA or Xen29 is resuspended and cultured in brain heart infusion (BHI) broth overnight (O/N) in aerobic conditions (37° C. with 220 rpm shaking), next day a 1:100 inoculum in Mueller-Hinton broth (MHB) is incubated in aerobic conditions for 3 hr (OD=0.08-0.1) and an inoculum of 1:300 dilution, corresponding to 3×10^5 CFU/ml, is incubated in presence or absence of different concentrations of the tested molecules in 1% DMSO. After O/N growth the OD of each culture was measured at 600 nm (OD600) in a spectrophotometer (Victor 3-Perkin Elmer). The MIC represents the concentration at which there is no visible growth of bacteria, i.e. ΔOD at 600 nm equal to zero (blank is the medium alone).
Molecule 36z has been tested for its potential antibacterial activity by determining its minimal inhibitory concentration (MIC) according to protocols recommended by EUCAST to assess the efficacy of antibiotics against bacterial strains. In brief MIC in MRSA (ATCC BAA-1556) or in Xen29 (Perkin Elmer-ATCC 12600) for 36z (molecule 25 in WO2009/034386) was determined by culturing a single colony of MRSA or Xen29 in brain heart infusion (BHI) broth overnight (O/N) in aerobic conditions (37° C. with 220 rpm shaking), while MIC for MRSE (ATCC 35984) was determined by culturing MRSE in TSB O/N. Next day a 1:100 inoculum in Mueller-Hinton broth (MHB) is incubated in aerobic conditions for 3 hr (OD=0.08-0.1) and an inoculum of 1:300 dilution, corresponding to 3×10^5 CFU/ml, is incubated in presence or absence of different concentrations of the tested molecules in 1% DMSO. After O/N growth the OD of each culture was measured at 600 nm (OD600) in a spectrophotometer (Victor 3-Perkin Elmer). The MIC represents the concentration at which there is no visible growth of bacteria, i.e. ΔOD at 600 nm equal to zero (blank is the medium alone). No antibacterial activity was found against MRSA (ATCC BAA-1556), Xen29 (Perkin Elmer-ATCC 12600 or MRSE (ATCC 35984) strains when the molecule was used at concentrations up to 200 μM.

[2] = system: Staphylococcus aureus (Xen29-ATCC 12600) biofilm formation; assay: S. aureus Xen29 biofilm formation (bioluminescence imaging, IVIS); type: cell-based; conditions: imaged every 60 min for 13 hours; for biofilm formation (photon signal per surface unit): 10 μM, vs vehicle DMSO 1%; for biofilm formation (photon signal per second, radiance): 20 μM, vs vehicle
Method: (§1) Bioluminescent S. aureus (Xen29, Perkin Elmer-(ATCC 12600)) is grown overnight in TSB medium, before being diluted 100 fold in fresh TSB, and incubated aerobically at 37° C. until bacteria culture reached an OD600 of 0.6 (corresponding to approximately 1-3×10^8 CFU/ml). Bacteria cultures are then diluted to 1×10^4 CFU/ml in fresh TSB. 600 μl aliquots of diluted bacteria suspensions are distributed in each well of a 48-well plate. Bacteria are allowed to adhere for 3 hours under static conditions at 37° C. After removing media, wells are rinsed 2 times with PBS to eliminate planktonic bacteria and re-filled with TSB supplemented with 0.5% glucose
(§2) […] Biofilm formation is imaged every 60 min, for 13 hours, using a IVIS camera system (Xenogen Corp.) Total photon emission from each well is then quantified using the Living Image software package (Xenogen Corp.).
as §1, with “suspensions were” for “suspensions are”
as §2
as §1, with “was” for “(Xen29, Perkin Elmer-(ATCC 12600)) is”, “O/N” for “overnight”, “were” for “are”, “TSB and aliquots of” for “TSB.”, “were” for “aliquots of diluted bacteria suspensions are”, “glucose. Molecules 2666 and 2511 were then added at 20 μM final concentration. Biofilm formation is imaged every 60 min, for 13 hours, using a IVIS camera system (Xenogen Corp.) Total photon emission from each well (photon/second:p/s) is then quantified using the Living Image software package (Xenogen Corp.).” for “glucose”

Row | Structure (SMILES) | MIC ([1]; read-out: MIC S. aureus MRSA) [µM] | biofilm formation (photon signal per surface unit) [2] | antibacterial activity against MRSA (in words) [1] | MIC ([1]; read-out: MIC MRSA) [µM] | biofilm formation (photon signal per second, radiance) [2]
1 | C#CCn1cnc2c(N[C@@H]3C[C@H]3c3ccc(F)c(F)c3)nc(SCCC)nc21 [Molecule 2452, N-((1R,2S)-2-(3,4-difluorophenyl)cyclopropyl)-9-(prop-2-yn-1-yl)-2-(propylthio)-9H-purin-6-amine] | 25 to 50 (≈ 9.99 to 20 µg/mL) | delay biofilm formation |  |  | 
2 | C=CCn1cnc2c(N[C@@H]3C[C@H]3c3ccc(F)c(F)c3)nc(SCCC)nc21 [Molecule 2412, 9-allyl-N-((1R,2S)-2-(3,4-difluorophenyl)cyclopropyl)-2-(propylthio)-9H-purin-6-amine] | 25 to 50 (≈ 10 to 20.1 µg/mL) | delay biofilm formation |  |  | 
3 | CCn1cnc2c(N[C@@H]3C[C@H]3c3ccc(F)c(F)c3)nc(SC)nc21 [Molecule 2511, N-((1R,2S)-2-(3,4-difluorophenyl)cyclopropyl)-9-ethyl-2-(methylthio)-9H-purin-6-amine] |  |  | active | 30 (≈ 10.8 µg/mL) | inhibited biofilm growth
4 | CCCSc1nc(N[C@@H]2C[C@H]2c2ccc(F)c(F)c2)c2ncn(CC)c2n1 [Molecule 2348, N-((1R,2S)-2-(3,4-difluorophenyl)cyclopropyl)-9-ethyl-2-(propylthio)-9H-purin-6-amine] | 25 (≈ 9.74 µg/mL) | fully prevented biofilm formation |  |  | 
5 | CCCSc1nc(N[C@@H]2C[C@H]2c2ccc(F)c(F)c2)c2ncn(C)c2n1 [Molecule 2329, N-((1R,2S)-2-(3,4-difluorophenyl)cyclopropyl)-9-methyl-2-(propylthio)-9H-purin-6-amine] | 20 (≈ 7.51 µg/mL) | fully prevented biofilm formation |  |  | 
6 | CCSc1nc(N[C@@H]2C[C@H]2c2ccc(F)c(F)c2)c2cnn(C)c2n1.Cl [Molecule 2666, N-((1R,2S)-2-(3,4-difluorophenyl)cyclopropyl)-6-(ethylthio)-1-methyl-1H-pyrazolo[3,4-d]pyrimidin-4-amine hydrochloride] |  |  | active | 20 | inhibited biofilm growth
